The assay has as its target T1, tubulin.
T1 construct: purified tubulin (alpha/beta heterodimer)
Nature of the assay: tryptophan fluorescence quenching titration; competition with BODIPY FL-vinblastine (Ki […]). Format: binding.

By Kd is commonly meant the concentration at which binding is half-saturated. A higher Kd goes with a looser complex.

Compound `O=C1NC(=S)S/C1=C\c1ccc(-c2ccc(Br)c(Cl)c2)o1` [BCFMT, (Z)-5-((5-(4-bromo-3-chlorophenyl)furan-2-yl)methylene)-2-thioxothiazolidin-4-one] had a Kd of 8.3 ± 1.8 µM.

The record behind these values is paper PMC3432122, “An Antitubulin Agent BCFMT Inhibits Proliferation of Cancer Cells and Induces Cell Death by Inhibiting Microtubule Dynamics” (PLoS ONE, 2012).
